# Measurements as given in article PMC9703800 (BMC Chemistry, 2022).
# Entries after “also recorded” stand apart in the source; their conditions may differ.
# Columns and labels:
# [1] = biological target: butyrylcholinesterase (BChE) (Equus caballus, UniProt P81908); experiment: biochemical; format: biochemical; conditions: for IC50: isolated compounds, mean ± SD, three experiments, read-out: BChEI (μM), IC50; for inhibition at 40 µg/mL: read-out: BChE inhibition (%)
# [2] = biological target: T1, Acetylcholinesterase (AChE) (Electrophorus electricus, UniProt O42275); experiment: biochemical; format: biochemical; conditions: for IC50: isolated compounds, mean ± SD, three experiments, read-out: AChEI (μM), IC50; for inhibition at 40 µg/mL: read-out: AChE inhibition (%)
# T1 construct: Type V-S, lyophilized powder, from electric eel; purchased Sigma-Aldrich; host or cells: electric eel (natural source)
# T1 sequence (O42275 24-633): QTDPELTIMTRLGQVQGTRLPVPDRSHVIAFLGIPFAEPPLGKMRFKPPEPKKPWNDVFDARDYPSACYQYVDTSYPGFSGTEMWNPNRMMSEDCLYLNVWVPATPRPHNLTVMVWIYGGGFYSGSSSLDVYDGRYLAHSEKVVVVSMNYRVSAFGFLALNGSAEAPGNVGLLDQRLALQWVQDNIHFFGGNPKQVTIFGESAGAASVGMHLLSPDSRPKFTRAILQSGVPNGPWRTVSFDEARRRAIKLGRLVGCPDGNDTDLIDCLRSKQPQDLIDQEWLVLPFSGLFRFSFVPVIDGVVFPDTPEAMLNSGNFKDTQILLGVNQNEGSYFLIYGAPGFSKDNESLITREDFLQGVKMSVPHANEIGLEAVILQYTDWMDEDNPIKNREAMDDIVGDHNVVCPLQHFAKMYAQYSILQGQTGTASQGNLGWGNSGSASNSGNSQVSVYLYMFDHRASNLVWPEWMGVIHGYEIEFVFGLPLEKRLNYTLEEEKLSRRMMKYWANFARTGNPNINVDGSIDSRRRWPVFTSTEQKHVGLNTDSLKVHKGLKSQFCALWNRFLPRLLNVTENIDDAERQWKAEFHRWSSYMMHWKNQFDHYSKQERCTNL
# BChE = BChE (Equus caballus, UniProt P81908); experiment: Kinetic study of BChE inhibition (Lineweaver-Burk); format: biochemical
# BChE, sequence (P81908 whole entry): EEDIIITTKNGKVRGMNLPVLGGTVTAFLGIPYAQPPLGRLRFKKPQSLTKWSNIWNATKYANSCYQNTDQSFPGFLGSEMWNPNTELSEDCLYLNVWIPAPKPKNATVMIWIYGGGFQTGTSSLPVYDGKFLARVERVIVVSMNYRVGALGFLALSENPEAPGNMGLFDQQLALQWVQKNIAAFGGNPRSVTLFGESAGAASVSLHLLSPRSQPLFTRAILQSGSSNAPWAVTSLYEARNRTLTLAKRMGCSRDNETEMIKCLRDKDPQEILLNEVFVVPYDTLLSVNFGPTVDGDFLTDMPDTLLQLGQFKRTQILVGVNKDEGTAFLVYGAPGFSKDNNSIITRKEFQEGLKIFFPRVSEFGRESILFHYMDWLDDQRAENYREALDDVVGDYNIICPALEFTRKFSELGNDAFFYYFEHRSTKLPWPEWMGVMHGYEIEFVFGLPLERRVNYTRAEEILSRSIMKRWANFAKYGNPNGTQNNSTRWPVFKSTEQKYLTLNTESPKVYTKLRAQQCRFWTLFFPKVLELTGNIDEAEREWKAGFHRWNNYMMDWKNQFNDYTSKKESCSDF
# Procedure: (§1) Kinetic studies of compound 2 were performed for the inhibition of ChEs based on the Ellman's method, using various concentrations of the inhibitor [14]. […]
# AChE = biological target: T2, AChE (Electrophorus electricus, UniProt O42275); experiment: Kinetic study of AChE inhibition (Lineweaver-Burk); format: biochemical
# T2 construct: Type V-S, lyophilized powder, from electric eel; purchased Sigma-Aldrich; host or cells: electric eel (natural source)
# T2 sequence (O42275 24-633): as the sequence (O42275 24-633) above
# Procedure: as §1
# PC12 cells = experiment: Neuroprotectivity against H2O2-induced cell death in PC12 cells (MTT); format: cell-based; conditions: 50 µM, positive control, H2O2 400 μM
# butyrylcholinesterase (BChE), sequence (P81908 whole entry): as the sequence (P81908 whole entry) above
compound,measurement,setting,value
"O=C(CCCCCCCCc1ccccc1)c1c(O)cccc1O [Compound 1, 1-(2,6-Dihydroxyphenyl)-9-phenylnonan-1-one]",BChE inhibitory activity (in words),[1],potent inhibitors; also recorded: strong inhibitors
same,IC50,[1],27.16 ± 0.06 µM
same,AChE inhibitory activity (in words),[2],potent inhibitors; also recorded: strong inhibitors
same,IC50,[2],67.4 ± 1.52 µM
"COc1cc(CC(C)C(C)Cc2ccc3c(c2)OCO3)ccc1O (stereo not drawn) [Compound 5, 4-(4-(Benzo[d][1,3]dioxol-5-yl)-2,3-dimethylbutyl)-2-methoxyphenol]",inhibition at 40 µg/mL,[1],54.4%
same,inhibition at 40 µg/mL,[2],12.8%
"COc1ccc(CC(C)C(C)Cc2ccc(O)c(O)c2)cc1OC (stereo not drawn) [Compound 3, 4-(4-(3,4-Dimethoxyphenyl)-2,3-dimethylbutyl)benzene-1,2-diol]",inhibition at 40 µg/mL,[1],47.4%
same,inhibition at 40 µg/mL,[2],0%
"O=C(CCCCCCCCc1ccc(O)c(O)c1)c1c(O)cccc1O [Compound 2, 1-(2,6-Dihydroxyphenyl)-9-(3,4-dihydroxyphenyl)nonan-1-one]",BChE inhibitory activity (in words),[1],potent inhibitors; also recorded: strong inhibitors
same,IC50,[1],22.36 ± 0.03 µM
same,Mechanism of BChE inhibition,BChE; Lineweaver-Burk plot,non-competitive inhibition; also recorded: non-competitively inhibited
same,Ki,"BChE; Lineweaver-Burk, inhibitor 0, 14, 28, 56 μM",22.4 µM
same,AChE inhibitory activity (in words),[2],potent inhibitors; also recorded: strong inhibitors
same,IC50,[2],25 ± 0.95 µM
same,Mechanism of AChE inhibition,AChE; Lineweaver-Burk plot,non-competitive inhibition; also recorded: non-competitively inhibited
same,Ki,"AChE; Lineweaver-Burk, inhibitor 0, 28, 56, 112 μM",25 µM
"COc1cc([C@H]2O[C@@H](c3ccc(O)c(OC)c3)[C@H](C)[C@@H]2C)ccc1O [Compound 4, 4,4'-((2R,3R,4S,5S)-3,4-Dimethyltetrahydrofuran-2,5-diyl)bis(2-methoxyphenol)]",inhibition at 40 µg/mL,[1],45.8%
same,inhibition at 40 µg/mL,[2],0%
O=c1c(O)c(-c2ccc(O)c(O)c2)oc2cc(O)cc(O)c12 [quercetin],Neuroprotection (%) against H2O2-induced cell death,PC12 cells,72.79%
"COc1cc(C(OC)C(C)C(C)Cc2ccc3c(c2)OCO3)ccc1O (stereo not drawn) [Compound 6, 4-(4-(Benzo[d][1,3]dioxol-5-yl)-1-methoxy-2,3-dimethylbutyl)-2-methoxyphenol]",inhibition at 40 µg/mL,[1],44%
same,inhibition at 40 µg/mL,[2],0%
